Reference: patent publication US12100151B2, “Droplet imaging pipeline” (Xilis, Inc., priority 2022, dated 2024)
“Also recorded” adds a separate entry of the source.

Experiments:
CRC #6 = assay: imaging-based MOS drug assay (MOS size, live/dead CAM/EtH dyes) on CRC #6; format: cell-based; conditions: CRC #6 model
Source text: (§2) The plates were scanned using the Celigo imaging cytometer and its software. We collected the brightfield images on the day (day 0) of the drug treatment and on the day right before performing the CellTiter-Glo (CTG) assay. Upon inserting the plate, images were set to be acquired on brightfield, green, and red fluorescence channels. The brightfield channel was used to focus the device and ensure the MOS boundaries were crisp. The green (live cell) fluorescence channel exposure time was then adjusted to ensure pixel intensity was below 200 across the control triplicate wells to avoid overexposure. This process was repeated for the red (dead cell) fluorescence channel in the positive control, killing condition triplicate wells. After scanning the plate, the stitched images of each well were exported in tiff format for the downstream imaging analysis.
(§3) We performed the live and dead cell staining on the same day prior to the CTG assay. For 96 well plates, a working dye solution of 20 μM Ethidium Homodimer-2 (Thermo Fisher, Cat. No. E3599) and 5 μM Calcein AM (Thermo Fisher, catalog No. C3100MP) was prepared by adding 1 mM Calcein AM, 1 mM Ethidium Homodimer-2, and CRC media in a 1:8:191 ratio. For 384-well plates, the working dye solution of 10 μM Ethidium Homodimer-2 and 2.5 μM Calcein AM was prepared by adding 1 mM Calcein AM, 1 mM Ethidium Homodimer-2, and colorectal cancer (CRC) media in a 1:8:391 ratio. After the solution was prepared, 11 μL and 10 μL of dye solution were added to each well on the 96-well and 384-wells plates, respectively, to yield a final well concentration of 2 μM Ethidium Homodimer-2 and 0.5 μM Calcein AM. The plates were then incubated for 45 min at 37° C.
(§4) Therefore, in studies involving the ratio of live-cell stain to dead-cell stain, we increased the predicted object mask to capture all the dead-stain fluorescence signal. The size increase was performed using one iteration of the dilate algorithm in OpenCV with a kernel size of 10×10. Any other MOSs detected by the machine learning model that overlap with this expanded region were removed before the integrated fluorescence was computed.
For the live and dead cell dyes-based imaging assay, the integrated live cell dye (Calcein AM) and dead cell dye (Eth) signals for each segmented object were determined. […]
(§5) To further increase the resolution and power of MOS drug assay pipeline, we developed an orthogonal approach by spiking a combination of live-cell (Calcein AM, CAM) and dead-cell (Ethidium Homodimer II, EtH) dyes (FIG. 5A; scale bar of 200 μm) into the drug assay plates prior to performing the CTG assay. We were able to quantitatively measure the integrated intensities of the CAM and EtH dyes in addition to MOS sizes.

CRC #5 = CRC #5 model; for sizes of CRC #5 MOS: FIG. 5A top panel; for drug response curve by median CAM/EtH dye ratios as compared to CTG based assay: FIG. 5C; for cytostatic vs. cytotoxic drug effect: from size, CAM/EtH ratio and CTG
Source text: as §2, §3, §4
For the live and dead cell dyes-based imaging assay, the integrated live cell dye (Calcein AM) and dead cell dye (Eth) signals for each segmented object were determined. To assess drug response at individual MOS level, the integrated intensities, or the ratios of Calcein AM/EtH, were shown on the scatter plot or histogram. The correlation of dose-dependent drug response with the median ratios of the integrated live/dead cell dye intensities from each well were computed and plotted.
as §5

sarcoma cancer MOS [1] = assay: live/dead cell dye imaging assay on sarcoma cancer MOS; format: cell-based; conditions: sarcoma MOS treated on Day 7 after establishment; FIG. 5F bottom panel
Source text: (§1) The imaging-based MOS drug assay allowed further delineating MOS 3D structures from individual stromal cells by overcoming fundamental limits of bulk assays, e.g., cell number, well-to-well variation, heterogeneity, and signal-to-noise ratio.

sarcoma cancer MOS [2] = assay: CTG luminescent cell viability assay on sarcoma cancer MOS; format: cell-based; conditions: sarcoma MOS treated on Day 7 after establishment; FIG. 5F top panel
Procedure: To measure cell viability, we used the CTG luminescent cell viability assay. CellTiter-Glo 3-D reagent (Promega, catalog no. G9681) was added in a 1:1 ratio with the initial well volume ([…], of CTG reagent 96-well plates and 384-well plates, respectively). The plates were placed on a shaker for 30 min. We measured luminescence by using a plate reader for each well.
Cell viability was assessed using both metabolic and imaging parameters. For the metabolic assay, Day 0 brightfield images were used to normalize CTG measurements for each well. Total surface areas (tSA) outputted from the machine learning model were used for normalizing the plating variations. The measured CTG value of each well was then divided by these surface area ratios to determine the adjusted CTG values. These adjusted CTG values were used to generate drug response curves, e.g., viability curves for each drug condition.
as §1

SMILES | drug resistant clones identified (CRC #6; FIG. 5A and FIG. 5D) | drug response curve by median CAM/EtH dye ratios as compared to CTG based assay (CRC #6; FIG. 5C) | sizes of CRC #5 MOS (CRC #5) | drug response curve by median CAM/EtH dye ratios as compared to CTG based assay (CRC #5) | cytostatic vs. cytotoxic drug effect (CRC #5) | ratios of CAM/EtH dye integrated intensities (CRC #5; live-cell Calcein AM / dead-cell Ethidium Homodimer II) | drug response by median values of live/dead cell ratios (sarcoma cancer MOS [1]) | bulk CTG readouts (raw CTG or adjusted CTG) drug response curves (sarcoma cancer MOS [2]) | sensitivity of the model to the drug (CRC #6) | sizes of CRC #6 MOS (CRC #6)
CCc1c2c(nc3ccc(O)cc13)-c1cc3c(c(=O)n1C2)COC(=O)[C@]3(O)CC [SN38] | identified the drug resistant clones | comparable dose-dependent drug responses | decreased | comparable dose-dependent drug responses | cytotoxic effect | only decreased in the wells treated with SN38 |  |  |  | 
CC(=O)O[C@@]12CO[C@@H]1C[C@H](O)[C@@]1(C)C(=O)[C@H](O)C3=C(C)[C@@H](OC(=O)[C@H](O)[C@@H](NC(=O)OC(C)(C)C)c4ccccc4)C[C@@](O)([C@@H](OC(=O)c4ccccc4)[C@H]21)C3(C)C [Docetaxel] |  |  |  |  |  |  | clear dose-dependent drug response | not able to provide any meaningful dose-dependent drug response curves |  | 
C#Cc1cccc(Nc2ncnc3cc(OCCOC)c(OCCOC)cc23)c1 [Erlotinib] |  |  | decreased | divergence between CTG plot and CAM/EtH ratio plot | cytostatic effect; also recorded: cytostatic but not the cytotoxic effect |  |  |  | resistant to EGFR inhibition | no obvious decrease
Nc1ccn([C@@H]2O[C@H](CO)[C@@H](O)C2(F)F)c(=O)n1 [Gemcitabine] |  |  |  |  |  |  | less sensitive response | not able to provide any meaningful dose-dependent drug response curves |  | 
